Assay results reported in USRE33375E, “Treatments employing drug-containing matrices for introduction into cellular lesion areas” (Matrix Pharmaceuticals, Inc., priority 1988, dated 1990).
Where a name gives a salt, the structure may show the parent alone. Marks after values point to notes of the source that are not given here.

Key:
[1] = test system: experimental murine fibrosarcoma (RIF-1 cells); assay: Regrowth delay of the treated transplantable murine fibrosarcoma; type: in vivo, murine; female C3H mice; conditions: for Regrowth Delay: time to 4 times initial treatment volume (150 mm^3), Mean ± S.E.
Description: times their initial treatment volume (150 mm^3). Increasing values
indicate enhanced therapeutic effect.
When the tumors reached a volume of 150 mm^3, the mice were assigned randomly to the following groups (4-6 mice per group): (1) untreated controls; (2) 5-FU (100 mg/kg), i.p., 0.1 ml/mouse; (3) 5-FU (100 mg/kg), i.t., 0.1 ml/tumor; (4) 5-FU-BC (100 mg 5-FU/kg dispersed in BC (18 mg/ml)), i.t., 0.1 ml/tumor; 5-FU-EPI-BC (100 mg 5-FU/kg) 5 mg EPI/kg dispersed in BC (18 mg/ml), i.t., 0.1 ml/tumor.
In the next study doxorubicin-HCl (ADM) (Adriamycin) was studied using the above-described protocol. The adriamycin in distilled water (4.45 mg/ml) was mixed with 36 mg/ml bovine collagen (BC) 1:1 to yield a composition ratio of 2.25 mg adriamycin:18 mg BC/ml.
^2 Tumor Regrowth Delay (RD). Time (days) required for tumors to grow
to 3 × its original treatment volume (~150 mm^3).
Increasing RD indicate increased tumor cell killing.

RIF-1 tumor [2] = assay: RIF-1 tumor regrowth delay, 5-fluorouracil-matrix implant in combination with X-rays; type: in vivo, female C3H mice; conditions: 5-FU 75 mg/Kg, i.p.
Description: In the next experiment 5-fluorouracil-matrix implant in combination with X-rays was evaluated. […] When the tumors reached volumes of 150 mm^3, they were divided into the following groups, (4-6 mice/group):
2. X-rays (1000 rad.) alone
3. Collagen-matrix (CM) i.t. 5 min. before X-rays
4. 5-Fluorouracil (5-FU) (75 mg/Kg) i.p.
6. 5-FU i.p. 5 min before X-rays
(§1) Tumor bearing mice were irradiated in lead jigs exposing only the tumor and overlying skin with a 250 kVp X-ray machine at a dose rate of 120 rad/min. The tumors of the treated and untreated mice were measured three times per week and assayed for regrowth delay and skin reactions as previously described.

white blood cells = assay: White blood cell count in tumor-bearing mice
Description: (§2) In the next study 5-fluorouracil (5-FU) (Sigma Chem. Co., St. Louis, Mo.) with and without epinephrine (Sigma) suspended in saline by sonication (60 mg/ml) and mixed 1:1 with bovine collagen (BC) (Collagen Corp., Palo Alto, Calif.) (36 mg/ml) or normal saline. The subjects were 25 gm 12 week-old female C3H/He mice (Bantin and Kingman, Fremont, Calif.) bearing the transplatable experimental murine fibrosarcoma propagated intradermally as previously described.
(§3) On day four post-treatment, white blood cells (wbc) were counted by sampling blood from the tail, dilution in Turk's solution and counting in a hemocytometer. On day eight post-treatment, skin reaction is overlying tissue was graded for untoward response.
(§4) The adriamycin in distilled water (4.45 mg/ml) was mixed with 36 mg/ml bovine collagen (BC) 1:1 to yield a composition ratio of 2.25 mg adriamycin:18 mg BC/ml.
^4 White Blood Cells measured on Day 4 post injection by sampling fro
the tail of treatment mice.
(§5) In the next study vincristine (VCR) was dissolved in saline (0.6 mg/ml) by sonication and mixed 1:1 with bovine collagen (36 mg/ml). Otherwise, the procedure was the same.
In the next study a combination of bleomycin sulfate (Sigma Chemical Co., St. Louis, Mo.) (15 mg/kg) and epinephrine (5 mg/kg) employed in a bovine collagen composition were evaluated for antitumor effect in the transplantable experimental murine fibrosarcoma model previously described.
(§6) In another experiment the curative potential of drug matrix formulations was evaluated in the experimental murine fibrosarcoma model. Briefly, female C3H/He mice bearing a single experimental tumor produced as previously described were treated at weekly intervals with formulations containing 5-fluorouracil (50 mg/kg); bovine collagen BC (Collagen Corp., Palo Alto, Calif.); epinephrine (Sigma Chemical Co., St. Louis, Mo.); and PBS. WBC's were determined on Day 4 following each treatment cycle and skin reaction on […] after each treatment cycle. Treatment was discontinued for all grops when 3 of 4 experiment groups reach 4×initial tumor volume. When tumors reached a volume of 150 mm^3 the mice were randomly assigned to the following groups:
(§7) 2. 5-FU-PBS i.p.; 5-FU (23 mg/ml) was combined 1:1 with PBS; 0.1 ml injected/mouse i.p.
(§8) 3. 5-FU-PBS i.t.; 5-FU (23 mg/ml) was combined 1:1 with PBS; 0.1 ml injected/tumor i.t.
(§9) 4. 5-FU-BC i.t.; 5-FU (23 mg/ml) was combined 1:1 with bovine collagen (36 mg/ml); 0.1 ml injected i.t.
(§10) In another experiment the influence of matrix composition on antitumor activity of 5-fluorouracil (100 mg/kg) was evaluated in the experimental murine fibrosarcoma model previously described. 5-FU (Sigma Chemical Co., St. Louis, Mo.) was combined as described below with bovine collagen BC (Collagen Corp., Palo Alto, Calif.); bovin fibronogen (95% clottable, Sigma), bovine thrombin (2000NIH units/mg, Sigma) and Ringer's Solution For Injection (RFI, Abbott Labs., North Chicago, Ill.). When tumors reached a volume of 150 mm^3 the mice (Bantin and Kingman, Fremont, Calif.) were assigned randomly to the following groups, (3-4 mice/group):
(§11) 3. 5-FU-Fibrinogen: 5-FU (36 mg/ml) combined 1:1 with the fibrinogen preparation described in 2 above, 0.1 ml i.t.
(§12) 4. 5-FU-BC-Fibrinogen: 5-FU (36 mg/ml) combined 1:1 with a fibrinogen-BC preparation consisting of fibrinogen (30 mg/ml); BC (36 mg/ml) dispersed in RFI containing 1 NIH unit of thrombin activity/ml, 0.1 ml i.t.

skin overlying the tumor = assay: Skin reaction of the skin overlying the tumor
Description: as §3
(§13) The skin reaction is scored as follows: […]
as §13, §6, §10, §11, §12
In the next experiment 5-fluorouracil-matrix implant in combination with X-rays was evaluated. Single RIF-1 tumors were grown on the back of female C3H mice (12-16 weeks) (Bantin and Kingman, Fremont, Calif.) as previously described. When the tumors reached volumes of 150 mm^3, they were divided into the following groups, (4-6 mice/group):
as §1

[3] = test system: uninjected contralateral fibrosarcoma (RIF-1 cells); assay: Regrowth delay of the uninjected contralateral fibrosarcoma; type: in vivo, murine; female C3H mice; conditions: for Regrowth Delay, uninjected contra: time to 4 times initial volume, Mean ± S.E.
Description: A transplantable experimental murine fibrosarcoma (2×10^5 RIF-1 cells) was grown intradermally in the flank of 5 month old female C3H mice (Bantin and Kingman, Fremont, Calif.). Cis-diamine dichloroplatinum (II) (cis-Pt) (Sigma Chemical Co., St. Louis, Mo.) was dissolved in sterile saline at concentrations of 0.8, 1.6 and 3.2 mg/ml and mixed 1:1 with bovine collagen (BC) (36 mg/ml) in PBS 20 mM phosphate, 140 mM NaCl (Collagen Corp., Palo Alto, Calif.). Doses of 2, 4 and 8 mg/kg host of cis-Pt were delivered in 0.1 ml of the collagenous drug mixture to the center of the tumor growing in the flank (intratumorally, i.t.), and the tumor measured. The growth of a second uninjected tumor on the opposing flank of the same mouse was also measured. In addition, cis-Pt dissolved in PBS without collagen was administered intraperitoneally (i.p.) to other tumor-bearing mice (4 tumors/group) to monitor the effects on tumor growth of the drug without collagen. Furthermore, the effect of bovine collagen on tumor growth was also studied by injection of 0.1 ml of collagen, (18 mg/ml) into the experimental fibrosarcomas, as previously described. The growth of the tumors was monitored three times per week by caliper measurements of three perpendicular diameters of the tumor and calculating tumor volume from the formula
*Regrowth Delay determined as the time (days) for tumors to grow to four
times their initial treatment volume (150 mm^3).
as §2, §4
^3 Contralateral Tumor RD (CRD). Time (days) required for untreated
contralateral tumors to grow to 3× its original treatment volume
(~150 mm^3). Decreasing RD indicate enhanced regionalization of
drug injected when compared to RD.
as §5
In the next study a combination of bleomycin sulfate (Sigma Chemical Co., St. Louis, Mo.) (15 mg/kg) and epinephrine (5 mg/kg) employed in a bovine collagen composition were evaluated for antitumor effect in the transplantable experimental murine fibrosarcoma model previously described. […]

[4] = test system: experimental murine fibrosarcoma; assay: Tumor regrowth delay on weekly treatment (curative potential); type: in vivo, murine; female C3H/He mice
Description: as §6, §7, §8, §9

[5] = Acute animal toxicity / survival after injection; conditions: 15 mg/kg
Description: as §2, §4

RIF-1 tumor [6] = assay: RIF-1 tumor regrowth delay, cis-DDP-matrix implant in combination with hyperthermia; type: in vivo, female C3H mice; conditions: cis-DDP 6 mg/Kg, i.p.
Description: In the next study cis-DDP-matrix (DDP=cis-Pt) implant in combination with hyperthermia was evaluated.
2. Hyperthermia (43° C., 30 min) alone
3. Hyperthermia+collagen-matrix (CM)+epinephrine (epi) (2 mg/Kg)
4. cis-DDP (6 mg/Kg) i.p.
6. cis-DDP (i.p.) 30 min before hyperthermia
7. cis-DDP-CM-epi (i.t.) 30 min before hyperthermia.
The tumor bearing mice were heated in a precision water bath with 30 gauge thermistor thermometry (±0.2° C.).

[7] = 5-FU 100 mg/kg, i.p., mean ± S.E.
[8] = 5-FU 100 mg/kg, i.t. (± EPI 5 mg/kg), mean ± S.E.
[9] = 5-FU 50 mg/kg on Days 0, 8 and 16, i.p.
[10] = 5-FU 50 mg/kg on Days 0, 8 and 16, i.t. (± Epinephrine 5 mg/kg)
[11] = BLM 15 mg/kg, i.p., mean ± S.E.
[12] = BLM 15 mg/kg, i.t. (± EPI 5 mg/kg), mean ± S.E.

## O=c1[nH]cc(F)c(=O)[nH]1 [5-FU, 5-fluorouracil]
[1]; [7]
  Tumor Regrowth Delay: 13.1 ± 1.4 days
[1]; [8]
  Tumor Regrowth Delay: 14.5 ± 0.9 days
RIF-1 tumor [2]; 5 min before X-rays (1000 rad)
  2× Tumor Regrowth Delay: 12.6 ± 2.8 days
RIF-1 tumor [2]; no X-rays
  2× Tumor Regrowth Delay: 8.5 ± 1.1 days
White blood cells; [9]
  WBC D-12: 109 ± 28
White blood cells; [10]
  WBC D-12: 107 ± 25
White blood cells; 5-FU 100 mg/kg, i.p., day four post-treatment
  White Blood Cells/mm^3: 4.5 ± 0.6 Cells/mm^3 (× 10^3)
White blood cells; 5-FU 100 mg/kg, i.t. (± EPI 5 mg/kg), day four post-treatment
  White Blood Cells/mm^3: 3.5 ± 0.5 Cells/mm^3 (× 10^3)
Skin overlying the tumor; [9]
  Skin Reaction D-8: 1.2 ± 1.1
Skin overlying the tumor; [10]
  Skin Reaction D-8: 1.0 ± 0.6
Skin overlying the tumor; 5-FU 75 mg/Kg, i.p. + X-rays (1000 rad), scored as previously described (0-3)
  Skin Reaction: 2
Skin overlying the tumor; 5-FU 75 mg/Kg, i.p., no X-rays, scored as previously described (0-3)
  Skin Reaction: 2
Skin overlying the tumor; 5-FU 100 mg/kg, i.p., Day 8, 0 = no effect, 1 = superficial inflammation, 2 = scab, 3 = ulcer
  Skin Reaction: 0.7 ± 0.4
Skin overlying the tumor; 5-FU 100 mg/kg, i.t. (± EPI 5 mg/kg), Day 8, 0 = no effect, 1 = superficial inflammation, 2 = scab, 3 = ulcer
  Skin Reaction: 0
[3]; [7]
  Untreated Contralateral Regrowth Delay: 13.1 ± 1.4 days
[3]; [8]
  Untreated Contralateral Regrowth Delay: 11.1 ± 0.6 days
[4]; [9]
  Tumor Regrowth 4 ×: 10.3 ± 1.3 days
[4]; [10]
  Tumor Regrowth 4 ×: 14.9 ± 3.8 days

## COc1cccc2c1C(=O)c1c(O)c3c(c(O)c1C2=O)C[C@@](O)(C(=O)CO)C[C@@H]3O[C@H]1C[C@H](N)[C@H](O)[C@H](C)O1 [Free ADM, doxorubicin-HCl]
[1]; ADM 15 mg/kg, i.t., time to 3 × original treatment volume (~150 mm^3)
  Tumor Regrowth Delay, Treated: 13.7 ± 1.7 days
[5]; intratumoral injection
  toxicity of intratumoral injection: non-toxic
[5]; mouse, in vivo
  survival: 100%
[5]; mouse, in vivo, ip
  mortality: 75%
  survival: 25%
White blood cells; ADM 15 mg/kg, i.t., Day 4 post injection
  White Blood Cells/mm^3: 4.1 ± 0.69 Cells/mm^3 (× 10^3)
Skin overlying the tumor; ADM 15 mg/kg, i.p., Day 8 post injection, 0 = no effect, 1 = superficial inflammation, 2 = scab, 3 = ulcer
  Skin Reaction: 1.5 ± 0.5
Skin overlying the tumor; ADM 15 mg/kg, i.t., Day 8 post injection, 0 = no effect, 1 = superficial inflammation, 2 = scab, 3 = ulcer
  Skin Reaction: 2.0
[3]; ADM 15 mg/kg, i.t., untreated contralateral tumor, time to 3× original treatment volume (~150 mm^3)
  Tumor Regrowth Delay, Contralateral: 8.3 ± 0.75 days

## CC[C@]1(O)C[C@H]2CN(CCc3c([nH]c4ccccc34)[C@@](C(=O)OC)(c3cc4c(cc3OC)N(C=O)[C@H]3[C@@](O)(C(=O)OC)[C@H](OC(C)=O)[C@]5(CC)C=CCN6CC[C@]43[C@@H]65)C2)C1 [VCR, vincristine]
[1]; VCR 2 mg/kg, i.p.
  Tumor Regrowth Delay: 10.6 ± 2.0 days
White blood cells; VCR 2 mg/kg, i.p.
  White Blood Cells/mm^3: 7.4 ± 1.3 Cells/mm^3 (× 10^3)
Skin overlying the tumor; VCR 2 mg/kg, i.p., scored as in the preceding studies (0-3)
  Skin Reaction: 0.6 ± 0.4
[3]; VCR 2 mg/kg, i.p.
  Untreated Contralateral Regrowth Delay: 10.6 ± 2.0 days

## N.N.[Cl][Pt][Cl] [cis-Pt, Cis-diamine dichloroplatinum (II)]
[1]; i.p., 2 mg/kg cis-Pt
  Regrowth Delay: 7.2 ± 0.1 days
[1]; i.p., 4 mg/kg cis-Pt
  Regrowth Delay: 9.1 ± 0.7 days
[1]; i.p., 8 mg/kg cis-Pt
  Regrowth Delay: 9.9 ± 1.0 days
[1]; i.t., 2 mg/kg cis-Pt, injected tumor
  Regrowth Delay: 9.5 ± 0.5 days
[1]; i.t., 4 mg/kg cis-Pt, injected tumor
  Regrowth Delay: 10.3 ± 0.7 days
[1]; i.t., 8 mg/kg cis-Pt, injected tumor
  Regrowth Delay: 11.5 ± 0.04 days
[3]; opposing tumor injected i.t. with 2 mg/kg cis-Pt
  Regrowth Delay, uninjected contra: 9.3 ± 1.2 days
[3]; opposing tumor injected i.t. with 4 mg/kg cis-Pt
  Regrowth Delay, uninjected contra: 8.9 ± 0.7 days
[3]; opposing tumor injected i.t. with 8 mg/kg cis-Pt
  Regrowth Delay, uninjected contra: 9.9 ± 0.9 days
RIF-1 tumor [6]; 30 min before hyperthermia (43° C., 30 min)
  Tumor Regrowth Delay (2×): 8.9 ± 0.8 days
RIF-1 tumor [6]; no hyperthermia
  Tumor Regrowth Delay (2×): 6.5 ± 1.5 days

## bleomycin sulfate [BLM]
[1]; [11]
  Tumor Regrowth Delay: 7.5 ± 0.9 days
[1]; [12]
  Tumor Regrowth Delay: 8.9 ± 0.6 days
[3]; [11]
  Untreated Contralateral Regrowth Delay: 7.5 ± 0.9 days
[3]; [12]
  Untreated Contralateral Regrowth Delay: 7.0 ± 0.7 days
